Measurements: patent US20190062305A1, “PYRIDYL OR PYRAZINYL COMPOUNDS CARRYING A METHYL-BOUND ALPHA-AMINO ACID AMIDE GROUP” (ABBVIE DEUTSCHLAND GMBH & CO. KG, priority 2015, published 2019)
Structures can show the parent of a compound that is named as a salt.

What was measured:
5-HT2C receptor = target: T1, 5-HT2C receptor (Homo sapiens, UniProt P28335); assay: Human 5-HT2C functional assay (beta-arrestin2 recruitment, U2OS_HTR2C_β-Arrestin cells); assay type: cell-based; conditions: for EC50: beta-arrestin2 recruitment, U2OS_HTR2C_β-Arrestin cells, 1.5 h incubation, read-out: EC50 5-HT2C (potency in functional assay); for Emax: relative efficacy vs response to 10 μM 5-HT or maximal 5-HT effect (100%)
T1 construct: host or cells: U2OS
Summary of the method: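 EC50 and relative efficacy came from 4-parameter variable-slope fits, normalised to 10 µM 5-HT or maximal 5-HT response (100%). Luminescent β-galactosidase enzyme-complementation signal was read after 1.5 h compound exposure in U2OS_HTR2C_β-Arrestin cells held in 1% serum medium from the prior day.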

[1] = Metabolic stability in human liver microsomes, unbound intrinsic clearance (Cl int/fu mic); assay type: in vitro ADME; conditions: human, liver microsomes, pH 7.4, human liver microsomes 0.25 mg/mL, 0.5 μM compound, NADPH, read-out: Cl int, mic unb. (h) [l/h/kg] (unbound intrinsic clearance, human)
Summary of the method: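 Unbound intrinsic clearance is CLint divided by fu mic, with the unbound fraction measured by 4 h HTDialysis at 37 °C of 0.25 mg/ml microsomes spiked with 0.5 µM compound. For CLint, 0.5 µM compound was incubated with 0.25 mg/mL human microsomes and 1.0 mM NADPH (pH 7.4, 37 °C). Substrate loss over 30 min was measured by LC-MS/MS and t1/2 assumed first-order kinetics.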

T1 sequence (P28335 33-458): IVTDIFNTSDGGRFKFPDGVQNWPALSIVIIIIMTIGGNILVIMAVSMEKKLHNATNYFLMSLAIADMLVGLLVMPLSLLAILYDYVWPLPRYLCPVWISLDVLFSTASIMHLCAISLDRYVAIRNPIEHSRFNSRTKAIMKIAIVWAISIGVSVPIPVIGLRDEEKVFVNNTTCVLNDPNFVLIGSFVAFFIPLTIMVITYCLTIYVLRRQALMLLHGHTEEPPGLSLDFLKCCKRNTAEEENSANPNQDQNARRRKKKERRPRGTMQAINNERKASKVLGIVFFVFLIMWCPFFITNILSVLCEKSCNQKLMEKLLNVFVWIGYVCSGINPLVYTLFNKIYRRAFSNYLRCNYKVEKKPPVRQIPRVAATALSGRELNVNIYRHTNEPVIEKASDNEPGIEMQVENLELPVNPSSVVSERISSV
T1 sequence (P32121 whole entry partner): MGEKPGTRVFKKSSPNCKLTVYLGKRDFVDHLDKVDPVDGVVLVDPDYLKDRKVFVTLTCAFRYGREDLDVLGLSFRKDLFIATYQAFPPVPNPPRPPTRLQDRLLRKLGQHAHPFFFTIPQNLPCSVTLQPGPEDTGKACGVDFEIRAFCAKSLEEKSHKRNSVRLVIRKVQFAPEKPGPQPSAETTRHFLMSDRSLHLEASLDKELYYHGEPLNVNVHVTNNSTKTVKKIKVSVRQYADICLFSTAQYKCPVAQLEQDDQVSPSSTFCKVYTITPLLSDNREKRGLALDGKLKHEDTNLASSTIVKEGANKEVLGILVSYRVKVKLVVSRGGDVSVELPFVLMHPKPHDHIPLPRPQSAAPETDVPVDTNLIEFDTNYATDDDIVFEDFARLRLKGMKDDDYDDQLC

COc1nc(OC2CCC(C(C)(F)F)CC2)c(F)cc1CNC(=O)[C@@H]1CCCN1 (stereo partly drawn) [Example 72, (2S)—N-((6-((4-(1,1-Difluoroethyl)cyclohexyl)oxy)-5-fluoro-2-methoxypyridin-3-yl)methyl)pyrrolidine-2-carboxamide 2,2,2-trifluoroacetate]
EC50 (5-HT2C receptor): < 20 nM | Emax (5-HT2C receptor): > 70% | CLint scaled at 0.5 μM [1]: 5 to 50 L/h/kg

COc1nc(OC2CC(F)(F)C2)c(F)cc1CN(C)C(=O)[C@@H]1CCCN1 [Example 78, (2S)—N-[[6-(3,3-Difluorocyclobutoxy)-5-fluoro-2-methoxy-3-pyridyl]methyl]-N-methyl-pyrrolidine-2-carboxamide Hydrochloride]
EC50 (5-HT2C receptor): < 20 nM | Emax (5-HT2C receptor): > 70% | CLint scaled at 0.5 μM [1]: < 5 L/h/kg

COc1nc(NCCCc2ccccc2)c(F)cc1CNC(=O)[C@@H]1CCCN1 [Example 185, (2S)—N-[[5-Fluoro-2-methoxy-6-(3-phenylpropylamino)-3-pyridyl]methyl]-pyrrolidine-2-carboxamide; 2,2,2-trifluoroacetic acid]
EC50 (5-HT2C receptor): 20 to 200 nM | Emax (5-HT2C receptor): > 70% | CLint scaled at 0.5 μM [1]: 5 to 50 L/h/kg

COc1nc(OC2CC(F)(F)C2)c(F)cc1CNC(=O)[C@H](C)N1CCC1 [Example 101, (2S)-2-(Azetidin-1-yl)-N-[[6-(3,3-difluorocyclobutoxy)-5-fluoro-2-methoxy-3-pyridyl]methyl]propanamide Hydrochloride]
EC50 (5-HT2C receptor): < 20 nM | Emax (5-HT2C receptor): > 70% | CLint scaled at 0.5 μM [1]: < 5 L/h/kg

COc1nc(N2CCC(CC(F)(F)F)C2)c(F)cc1CNC(=O)[C@@H]1CCCN1 (stereo partly drawn) [Example 187, (2S)—N-[[5-Fluoro-2-methoxy-6-[3-(2,2,2-trifluoroethyl)pyrrolidin-1-yl]-3-pyridyl]methyl]pyrrolidine-2-carboxamide; 2,2,2-trifluoroacetic Acid]
EC50 (5-HT2C receptor): 20 to 200 nM | Emax (5-HT2C receptor): > 70% | CLint scaled at 0.5 μM [1]: 5 to 50 L/h/kg

COc1nc(OC2CCC(C(F)(F)F)CC2)c(F)cc1CNC(=O)[C@@H]1C[C@@H](C)CN1C (stereo partly drawn) [Example 62, (2S,4R)—N-[[5-Fluoro-2-methoxy-6-[4-(trifluoromethyl)cyclohexoxy]-3-pyridyl]methyl]-1,4-dimethyl-pyrrolidine-2-carboxamide Hydrochloride]
EC50 (5-HT2C receptor): 20 to 200 nM | Emax (5-HT2C receptor): > 70% | CLint scaled at 0.5 μM [1]: 50 to 500 L/h/kg

COc1nc(OC2CCCC3C2C3(F)F)c(F)cc1CNC(=O)[C@@H]1CCCN1 (stereo partly drawn) [Example 95, (2S)—N-[[6-(7,7-Difluoronorcaran-2-yl)oxy-5-fluoro-2-methoxy-3-pyridyl]methyl]-pyrrolidine-2-carboxamide]
EC50 (5-HT2C receptor): < 20 nM | Emax (5-HT2C receptor): > 70% | CLint scaled at 0.5 μM [1]: 5 to 50 L/h/kg

COc1nc(OC2CCC(C(F)(F)F)CC2)c(F)cc1CNC(=O)[C@@H]1C[C@H]2C[C@H]2N1 (stereo partly drawn) [Example 82, (1R,3 S,5R)—N-[[5-Fluoro-2-methoxy-6-[4-(trifluoromethyl)cyclohexoxy]-3-pyridyl]methyl]-4-azabicyclo[3.1.0]hexane-3-carboxamide]
EC50 (5-HT2C receptor): 20 to 200 nM | Emax (5-HT2C receptor): > 70% | CLint scaled at 0.5 μM [1]: 5 to 50 L/h/kg

COc1nc(OC[C@@H]2CCC(F)(F)C2)c(F)cc1CNC(=O)[C@@H]1CCCN1 [Example 33, (2S)—N-[[6-[[(1R)-3,3-Difluorocyclopentyl]methoxy]-5-fluoro-2-methoxy-3-pyridyl]methyl]pyrrolidine-2-carboxamide; Fumaric Acid]
EC50 (5-HT2C receptor): < 20 nM | Emax (5-HT2C receptor): > 70% | CLint scaled at 0.5 μM [1]: < 5 L/h/kg

COc1nc(OCC(F)F)c(F)cc1CNC(=O)[C@@H]1CCCN1 [Example 86, (2S)—N-[[6-(2,2-Difluoroethoxy)-5-fluoro-2-methoxy-3-pyridyl]methyl]pyrrolidine-2-carboxamide; 2,2,2-trifluoroacetic Acid]
EC50 (5-HT2C receptor): < 20 nM | Emax (5-HT2C receptor): > 70% | CLint scaled at 0.5 μM [1]: < 5 L/h/kg

COc1nc(OC2CCC(F)(F)CC2)c(F)cc1CNC(=O)[C@@H]1CCCN1 [Example 1, (2S)—N-[[6-(4,4-Difluorocyclohexoxy)-5-fluoro-2-methoxy-3-pyridyl]methyl]-pyrrolidine-2-carboxamide; Fumaric Acid]
EC50 (5-HT2C receptor): < 20 nM | Emax (5-HT2C receptor): > 70% | CLint scaled at 0.5 μM [1]: < 5 L/h/kg

COc1nc(O[C@H]2CC[C@H](F)CC2)c(F)cc1CNC(=O)[C@@H]1CCCN1C [Example 28, (2S)—N-[[5-Fluoro-6-(trans-4-fluorocyclohexoxy)-2-methoxy-3-pyridyl]methyl]-1-methyl-pyrrolidine-2-carboxamide; Fumaric Acid]
EC50 (5-HT2C receptor): < 20 nM | Emax (5-HT2C receptor): > 70% | CLint scaled at 0.5 μM [1]: < 5 L/h/kg

COc1nc(N2CCCC(C(F)(F)F)C2)c(F)cc1CNC(=O)[C@@H]1CCCN1 (stereo partly drawn) [Example 153, (2S)—N-[[5-Fluoro-2-methoxy-6-[3-(trifluoromethyl)-1-piperidyl]-3-pyridyl]methyl]pyrrolidine-2-carboxamide; 2,2,2-trifluoroacetic Acid]
EC50 (5-HT2C receptor): 20 to 200 nM | Emax (5-HT2C receptor): > 70% | CLint scaled at 0.5 μM [1]: 5 to 50 L/h/kg

COc1nc(N2CCCC(F)C2)c(F)cc1CNC(=O)[C@@H]1CCCN1 (stereo partly drawn) [Example 161, (2S)—N-[[5-Fluoro-6-(3-fluoro-1-piperidyl)-2-methoxy-3-pyridyl]methyl]-pyrrolidine-2-carboxamide; 2,2,2-trifluoroacetic Acid]
EC50 (5-HT2C receptor): 20 to 200 nM | Emax (5-HT2C receptor): 50 to 70% | CLint scaled at 0.5 μM [1]: < 5 L/h/kg

COc1nc(N2CC(Cc3ccccc3)C2)c(F)cc1CNC(=O)[C@@H]1CCCN1 [Example 194, (2S)—N-[[6-(3-Benzylazetidin-1-yl)-5-fluoro-2-methoxy-3-pyridyl]methyl]-pyrrolidine-2-carboxamide]
EC50 (5-HT2C receptor): 20 to 200 nM | Emax (5-HT2C receptor): > 70% | CLint scaled at 0.5 μM [1]: 50 to 500 L/h/kg

C=CCN(Cc1ccccc1)c1nc(OC)c(CNC(=O)[C@@H]2CCCN2)cc1F [Example 150, (2S)—N-[[6-[N-Allyl-N-benzyl-amino]-5-fluoro-2-methoxy-3-pyridyl]methyl]-pyrrolidine-2-carboxamide Hydrochloride]
EC50 (5-HT2C receptor): 20 to 200 nM | Emax (5-HT2C receptor): > 70% | CLint scaled at 0.5 μM [1]: 5 to 50 L/h/kg

COc1nc(OCC2CCC(C(F)(F)F)CC2)c(F)cc1CNC(=O)[C@@H]1CCCN1 (stereo partly drawn) [Example 14, (2S)—N-[[5-Fluoro-2-methoxy-6-[[4-(trifluoromethyl)cyclohexyl]methoxy]-3-pyridyl]methyl]pyrrolidine-2-carboxamide; Fumaric Acid]
EC50 (5-HT2C receptor): < 20 nM | Emax (5-HT2C receptor): > 70% | CLint scaled at 0.5 μM [1]: 50 to 500 L/h/kg

COc1nc(OC2CCC(C(F)(F)F)CC2)c(F)cc1CNC(=O)[C@@H]1CCN1C (stereo partly drawn) [Example 38, (2S)—N-[[5-Fluoro-2-methoxy-6-[4-(trifluoromethyl)cyclohexoxy]-3-pyridyl]methyl]-1-methyl-azetidine-2-carboxamide; Succinic Acid]
EC50 (5-HT2C receptor): 20 to 200 nM | Emax (5-HT2C receptor): 50 to 70% | CLint scaled at 0.5 μM [1]: 5 to 50 L/h/kg

COc1nc(OC2CC3C(C2)C3(F)F)c(F)cc1CNC(=O)[C@@H]1CCCN1 (stereo partly drawn) [Example 54, (2S)—N-[[6-[(6,6-Difluoro-3-bicyclo[3.1.0]hexanyl)oxy]-5-fluoro-2-methoxy-3-pyridyl]methyl]pyrrolidine-2-carboxamide 2,2,2-trifluoroacetic Acid]
EC50 (5-HT2C receptor): < 20 nM | Emax (5-HT2C receptor): > 70% | CLint scaled at 0.5 μM [1]: < 5 L/h/kg

COc1nc(OCC2(C(F)(F)F)CC2)c(F)cc1CNC(=O)[C@@H]1CCCN1 [Example 48, (2S)—N-[[5-Fluoro-2-methoxy-6-[[1-(trifluoromethyl)cyclopropyl]methoxy]-3-pyridyl]methyl]pyrrolidine-2-carboxamide; Succinic Acid]
EC50 (5-HT2C receptor): < 20 nM | Emax (5-HT2C receptor): > 70% | CLint scaled at 0.5 μM [1]: < 5 L/h/kg

COc1nc(NCC2CCC(F)(F)CC2)c(F)cc1CNC(=O)[C@@H]1CCCN1 [Example 169, (2S)—N-[[6-[(4,4-Difluorocyclohexyl)methylamino]-5-fluoro-2-methoxy-3-pyridyl]methyl]pyrrolidine-2-carboxamide; 2,2,2-trifluoroacetic Acid]
EC50 (5-HT2C receptor): < 20 nM | Emax (5-HT2C receptor): > 70% | CLint scaled at 0.5 μM [1]: < 5 L/h/kg

COc1nc(N(C)C2CC2)c(F)cc1CNC(=O)[C@@H]1CCCN1 [Example 147, (2S)—N-[[6-[N-Cyclopropyl-N-methyl-amino]-5-fluoro-2-methoxy-3-pyridyl]methyl]pyrrolidine-2-carboxamide; 2,2,2-trifluoroacetic Acid]
EC50 (5-HT2C receptor): 200 to 1000 nM | Emax (5-HT2C receptor): 50 to 70% | CLint scaled at 0.5 μM [1]: 5 to 50 L/h/kg

COc1nc(OCC2(C(F)(F)F)CC2)c(F)cc1CN(C)C(=O)[C@@H]1CCCN1C [Example 98, (2S)—N-[[5-Fluoro-2-methoxy-6-[[1-(trifluoromethyl)cyclopropyl]methoxy]-3-pyridyl]methyl]-N,1-dimethyl-pyrrolidine-2-carboxamide Hydrochloride]
EC50 (5-HT2C receptor): 20 to 200 nM | Emax (5-HT2C receptor): 50 to 70% | CLint scaled at 0.5 μM [1]: < 5 L/h/kg

COc1nc(OC[C@H]2CCC(F)(F)C2)c(F)cc1CNC(=O)[C@@H]1CCCN1 [Example 32, (2S)—N-[[6-[[(1S)-3,3-Difluorocyclopentyl]methoxy]-5-fluoro-2-methoxy-3-pyridyl]methyl]pyrrolidine-2-carboxamide; Fumaric Acid]
EC50 (5-HT2C receptor): < 20 nM | Emax (5-HT2C receptor): 50 to 70% | CLint scaled at 0.5 μM [1]: < 5 L/h/kg

COc1nc(N2CC(Oc3ccc(Cl)cc3)C2)c(F)cc1CNC(=O)[C@@H]1CCCN1 [Example 151, (2S)—N-[[6-[3-(4-Chlorophenoxy)azetidin-1-yl]-5-fluoro-2-methoxy-3-pyridyl]methyl]pyrrolidine-2-carboxamide; 2,2,2-trifluoroacetic Acid]
EC50 (5-HT2C receptor): 200 to 1000 nM | Emax (5-HT2C receptor): > 70% | CLint scaled at 0.5 μM [1]: 50 to 500 L/h/kg
